Results taken from patent publication US8759295B2, “Peptide-peptidase inhibitor conjugates and methods of using same” (Amylin Pharmaceuticals, LLC, priority 2006, dated 2014).
Starred links: 1 amine or outer side, 2 acyl side, 3 side chain; linkers in the order of their positions; H or OH if unused. Non-standard residues stand in square brackets, D forms with d. Residues, ends and D or L forms follow the SMILES beside them. *: point of attachment. Pyrrolidine(2S-CN) = N#C[C@@H]1CCCN1*; εLys = N[C@@H](CCCCN[*:1])C(=O)[*:2]; AEEA = NCCOCCOCC(=O)O

What was measured:
plasma carboxypeptidase = experiment: Carboxypeptidase activity assay in human plasma, PYY(3-35) formation; format: biochemical; details: for inhibition of formation of PYY(3-35): 0.5 mM, human plasma
Experimental: Carboxypeptidase activity assays were performed in the presence of various agents to test for carboxypeptidase inhibitor activity of the agents.
The remainder of the sample was placed in an incubator at 37° C., mixing at 600 RPM for sixty minutes. At 10 minute intervals, a 100 μL sample of the mixture was removed and transferred to a separate microcentrifuge tubes. Following the transfer of the 100 μL sample at the zero time point and each 10 minute interval, each collected sample was extracted by slow addition of 100 μl cold 0.2% formic acid:acetonitrile, while mixing. After addition of the acetonitrile solution, the sample was vortex mixed at high speed for 15 seconds. The extracted samples were stored at −20° C. for at least 20 minutes and then centrifuged at 11,000×g for 10 minutes at 5° C. The supernatant of each sample was transferred to a new microcentrifuge tube, centrifuged again, and finally transferred for LC/MS analysis. The MS analysis was a Q1 single ion monitoring method that detects the most intense ion of the parent molecule and the peptide fragment of interest.

NIH/Swiss mice = experiment: Oral glucose tolerance test (OGTT), glucose lowering; details: IP, 2 hour fasted mice
[1] = human, kidney or brush border membranes, 4 h, pH 7.4
Experimental: The tubes were incubated in VorTemp 56™ (Eurotech Labs, UK) at 37° C. vortexed at 500 RPM. At time points of 0, 1, 2, 3, 4, and 5 hours, 200 μl STOP solution (50% ACN, 1% formic acid) was added to a given tube, and the samples were allowed to incubate until the end of the experiment. The samples were collected after 5 hours, centrifuged, and 200 μl of the supernatants were transferred into mass spectrometry vials. The intensities of the mother ions in each vial were analyzed with API 150EX™ mass spectrometer (Applied Biosystems, Foster City, Calif.) and quantified using the ANALYST™ program.
The hKBBM assay was also performed in the presence of valinepyrrolidide, a DPP-IV inhibitor.

[2] = tested on: Dahl salt-sensitive (DSS) male rats; experiment: Congestive heart failure (CHF) in vivo assay; details: week 5, high-salt diet, 10 μg/kg/day sc infusion
Experimental: In this assay, Dahl salt-sensitive (DSS) male rats were weaned at 21 days of age, maintained on a low-salt (LS) diet (0.2% NaCl) for 2 weeks. Rats were anesthetized with ketamine/xylazine (50 mg/kg/10 mg/kg, IP) and telemetry transmitters (Data Sciences, Inc.) were inserted to the aortic artery when rats were at 5 weeks of age. After surgery, the rats were allowed 10 days to recuperate before their BP (systolic and diastolic pressures) was recorded.
HS control animals (n=10 rats) were administered vehicle (50% DMSO) and fed HS in the same manner. LS control animals (n=5 rats) were maintained on the LS diet.

Recombinant DPP-IV = Recombinant DPP-IV (Homo sapiens, UniProt P27487); experiment: DPP-IV inhibition assay with chromogenic substrate; format: biochemical; set-up: purchased Chemicon International, Inc., Temecula, Calif; details: mean SEM of at least three determinations
Experimental: The reactions were initiated by adding 1 μl DPP-IV enzyme (0.05 mU) into each well and the absorbance at 410 nm was measured with 20-sec intervals over a 30-min period using a SpectraMax plate reader (Molecular Devices, Corp., Sunnyvale, Calif.). The velocities of each reaction at different inhibitor concentrations were calculated and the reciprocal velocities were plotted against inhibitor concentrations in Dixon graphs. The IC50 values of reaction velocities were calculated through fitting the plots with linear equation.
The IC50 (nM) values in Table 5 are expressed as the mean SEM of at least three independent determinations.

[3] = target: T1, human GIP receptor (HEK-GIPR membranes) (Homo sapiens, UniProt P48546); experiment: GIP receptor binding displacement assay (RBA); details: read-out: GIP RBA % inhibition at 10 nM; 10 nM conjugate, 30 pM 125I-GIP
T1 construct: expressed in transfected cells
T1 sequence (P48546 22-466): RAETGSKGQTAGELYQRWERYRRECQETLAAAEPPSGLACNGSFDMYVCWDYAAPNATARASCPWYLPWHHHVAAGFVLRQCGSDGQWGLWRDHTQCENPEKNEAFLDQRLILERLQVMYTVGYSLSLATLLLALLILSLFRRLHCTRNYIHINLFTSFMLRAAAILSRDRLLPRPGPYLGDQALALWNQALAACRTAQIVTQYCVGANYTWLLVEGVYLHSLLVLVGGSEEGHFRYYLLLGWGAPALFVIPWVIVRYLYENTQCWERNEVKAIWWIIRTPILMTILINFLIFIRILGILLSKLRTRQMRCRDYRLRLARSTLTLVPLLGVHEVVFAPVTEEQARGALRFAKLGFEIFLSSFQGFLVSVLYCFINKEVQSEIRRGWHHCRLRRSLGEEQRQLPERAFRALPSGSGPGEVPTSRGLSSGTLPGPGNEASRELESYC
Experimental: Membrane fractions were prepared from confluent cell cultures of HEK-GIPR, snap frozen, and stored at −80° C. until use. […] Reactions were allowed to proceed to equilibrium for 90 minutes at room temperature with constant shaking. The reaction mixtures were then filtered through 96-well glass fiber filter plates separating bound and unbound fractions of radioligand.

Recombinant DPP-IV, sequence (P27487 whole entry, species assumed): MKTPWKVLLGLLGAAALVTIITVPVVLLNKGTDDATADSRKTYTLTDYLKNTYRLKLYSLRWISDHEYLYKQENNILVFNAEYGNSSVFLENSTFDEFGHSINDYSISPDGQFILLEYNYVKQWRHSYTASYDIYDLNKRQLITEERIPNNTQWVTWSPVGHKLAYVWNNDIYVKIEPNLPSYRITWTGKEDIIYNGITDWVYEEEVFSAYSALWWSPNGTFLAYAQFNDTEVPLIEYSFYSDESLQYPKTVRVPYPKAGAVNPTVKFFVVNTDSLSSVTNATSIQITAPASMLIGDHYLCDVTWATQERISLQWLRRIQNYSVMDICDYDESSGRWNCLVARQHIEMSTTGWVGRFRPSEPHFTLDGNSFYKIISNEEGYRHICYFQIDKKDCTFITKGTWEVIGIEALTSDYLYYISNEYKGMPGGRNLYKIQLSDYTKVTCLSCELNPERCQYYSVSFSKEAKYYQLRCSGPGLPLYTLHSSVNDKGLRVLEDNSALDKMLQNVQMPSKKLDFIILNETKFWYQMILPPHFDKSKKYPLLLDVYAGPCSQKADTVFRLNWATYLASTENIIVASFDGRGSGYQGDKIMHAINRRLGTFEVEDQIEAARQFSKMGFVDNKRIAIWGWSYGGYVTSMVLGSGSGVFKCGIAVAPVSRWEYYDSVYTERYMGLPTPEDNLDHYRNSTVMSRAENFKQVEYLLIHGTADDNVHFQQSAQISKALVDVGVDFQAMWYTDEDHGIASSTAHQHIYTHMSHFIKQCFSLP

NCCc1ccc(S(=O)(=O)F)cc1 [AEBSF, 4-(2-aminoethyl)-benzenesulfonylfluoride, reference compound]
inhibition of plasma carboxypeptidase activity (plasma carboxypeptidase; protease inhibitor at 1 mM): inhibited

CC[C@H](C)[C@H](NC(=O)[C@H](Cc1ccccc1)NC(=O)[C@H](CCC(=O)O)NC(=O)[C@H](CCCCN)NC(=O)[C@H](C)NC(=O)[C@H](C)NC(=O)[C@H](CCC(N)=O)NC(=O)CNC(=O)[C@H](CCC(=O)O)NC(=O)[C@H](CC(C)C)NC(=O)[C@H](Cc1ccc(O)cc1)NC(=O)[C@H](CO)NC(=O)[C@H](CO)NC(=O)[C@@H](NC(=O)[C@H](CC(=O)O)NC(=O)[C@H](CO)NC(=O)[C@@H](NC(=O)[C@H](Cc1ccccc1)NC(=O)[C@@H](NC(=O)CNC(=O)[C@H](CCC(=O)O)NC(=O)[C@H](C)NC(=O)[C@H](Cc1c[nH]cn1)NC(=O)COCCOCCNC(=O)[C@@H]1CCCN1C(=O)[C@H](C)NC(CCc1ccccc1)C(=O)O)[C@@H](C)O)[C@@H](C)O)C(C)C)C(=O)N[C@@H](C)C(=O)N[C@@H](Cc1c[nH]c2ccccc12)C(=O)N[C@@H](CC(C)C)C(=O)N[C@H](C(=O)N[C@@H](CCCCN)C(=O)NCC(=O)N[C@@H](CCCNC(=N)N)C(N)=O)C(C)C (stereo partly drawn) [Compound 4983, (R,S)-1-[N^2-(1-carboxy-3-phenylpropyl)-L-ala]-L-pro-8-amino-3,6-dioxaoctanoyl-GLP-1-(7-36) amide]
glucose lowering in OGTT (FIGS. 7, 8) (NIH/Swiss mice): retain the glucose-lowering activity of GLP-1
intact conjugate compound present [1]: greater than 80%

CC[C@H](C)[C@H](NC(=O)[C@H](Cc1ccccc1)NC(=O)[C@H](CC(C)C)NC(=O)[C@H](CCCNC(=N)N)NC(=O)[C@@H](NC(=O)[C@H](C)NC(=O)[C@H](CCC(=O)O)NC(=O)[C@H](CCC(=O)O)NC(=O)[C@H](CCC(=O)O)NC(=O)[C@H](CC(C)C)NC(=O)[C@H](CCC(N)=O)NC(=O)[C@H](CCCCN)NC(=O)[C@H](CO)NC(=O)[C@H](CC(C)C)NC(=O)[C@H](CC(=O)O)NC(=O)[C@H](CO)NC(=O)[C@@H](NC(=O)[C@H](Cc1ccccc1)NC(=O)[C@@H](NC(=O)CNC(=O)[C@H](CCC(=O)O)NC(=O)CNC(=O)[C@@H](N)Cc1c[nH]cn1)[C@@H](C)O)[C@@H](C)O)C(C)C)C(=O)N[C@@H](CCC(=O)O)C(=O)N[C@@H](Cc1c[nH]c2ccccc12)C(=O)N[C@@H](CC(C)C)C(=O)N[C@@H](CCCCN)C(=O)N[C@@H](CCC(N)=O)C(=O)NCC(=O)NCC(=O)N1CCC[C@H]1C(=O)N[C@@H](CO)C(=O)N[C@@H](CCCCN)C(=O)N[C@@H](CCC(=O)O)C(=O)N[C@H](C(=O)N[C@H](C(=O)N[C@@H](CO)C(=O)NCCOCCOCCOCC(=O)NCCOCCOCC(=O)NCCCC[C@H](NC(CCc1ccccc1)C(=O)O)C(=O)N1CCC[C@H]1C(=O)O)[C@@H](C)CC)[C@@H](C)CC (stereo partly drawn) [Compound 5715]
mean diastolic blood pressure [2]: 112 mmHg
mean heart rate [2]: 381
mean systolic blood pressure [2]: 161 mmHg

CC[C@H](C)[C@H](NC(=O)[C@H](CO)NC(=O)[C@H](Cc1ccc(O)cc1)NC(=O)[C@H](CC(=O)O)NC(=O)[C@H](CO)NC(=O)[C@@H](NC(=O)[C@H](Cc1ccccc1)NC(=O)[C@@H](NC(=O)CNC(=O)[C@H](CCC(=O)O)NC(=O)[C@H](C)NC(=O)[C@@H](N)Cc1ccc(O)cc1)[C@@H](C)O)[C@@H](C)CC)C(=O)N[C@@H](C)C(=O)N[C@@H](CCSC)C(=O)N[C@@H](CC(=O)O)C(=O)N[C@@H](CCCCN)C(=O)N[C@H](C(=O)N[C@@H](Cc1c[nH]cn1)C(=O)N[C@@H](CCC(N)=O)C(=O)N[C@@H](CCC(N)=O)C(=O)N[C@@H](CC(=O)O)C(=O)N[C@@H](Cc1ccccc1)C(=O)N[C@H](C(=O)N[C@@H](CC(N)=O)C(=O)N[C@@H](Cc1c[nH]c2ccccc12)C(=O)N[C@@H](CC(C)C)C(=O)N[C@@H](CC(C)C)C(=O)N[C@@H](C)C(=O)N[C@@H](CCC(N)=O)C(=O)N[C@@H](CCCCNC(=O)COCCOCCNC(=O)CC[C@H](N)C(=O)N1CCC[C@H]1C#N)C(N)=O)C(C)C)[C@@H](C)CC [Lys^30N-ε-(Ado-(γ-L-Glu-2-(S)-cyanopyrrolidyl)) GIP(1-30)]
IC50 (Recombinant DPP-IV): 49 ± 6 nM
inhibition at 0.01 µM [3]: 33%

CC[C@H](C)[C@H](NC(=O)[C@H](CO)NC(=O)[C@H](Cc1ccc(O)cc1)NC(=O)[C@H](CC(=O)O)NC(=O)[C@H](CO)NC(=O)[C@@H](NC(=O)[C@H](Cc1ccccc1)NC(=O)[C@@H](NC(=O)CNC(=O)[C@H](CCC(=O)O)NC(=O)[C@H](C)NC(=O)[C@H](Cc1ccc(O)cc1)NC(=O)COCCOCCNC(=O)COCCOCCNC(=O)CC[C@H](N)C(=O)N1CCC[C@H]1C#N)[C@@H](C)O)[C@@H](C)CC)C(=O)N[C@@H](C)C(=O)N[C@@H](CCSC)C(=O)N[C@@H](CC(=O)O)C(=O)N[C@@H](CCCCN)C(=O)N[C@H](C(=O)N[C@@H](Cc1c[nH]cn1)C(=O)N[C@@H](CCC(N)=O)C(=O)N[C@@H](CCC(N)=O)C(=O)N[C@@H](CC(=O)O)C(=O)N[C@@H](Cc1ccccc1)C(=O)N[C@H](C(=O)N[C@@H](CC(N)=O)C(=O)N[C@@H](Cc1c[nH]c2ccccc12)C(=O)N[C@@H](CC(C)C)C(=O)N[C@@H](CC(C)C)C(=O)N[C@@H](C)C(=O)N[C@@H](CCC(N)=O)C(=O)N[C@@H](CCCCN)C(=O)O)C(C)C)[C@@H](C)CC [N-(γ-L-Glu-2-(S)-cyanopyrrolidyl)-Ado-Ado) GIP(1-30)]
IC50 (Recombinant DPP-IV): 64 ± 8 nM
inhibition at 0.01 µM [3]: 32%

CNC(Cc1ccc(O)cc1)C(N)=O (stereo not drawn) [N-methyl-Tyr-NH2]
inhibition of formation of PYY(3-35) (plasma carboxypeptidase): did not inhibit

CC[C@H](C)[C@H](NC(=O)[C@H](CO)NC(=O)[C@H](Cc1ccc(O)cc1)NC(=O)[C@H](CC(=O)O)NC(=O)[C@H](CO)NC(=O)[C@@H](NC(=O)[C@H](Cc1ccccc1)NC(=O)[C@@H](NC(=O)CNC(=O)[C@H](CCC(=O)O)NC(=O)[C@H](C)NC(=O)[C@@H](N)Cc1ccc(O)cc1)[C@@H](C)O)[C@@H](C)CC)C(=O)N[C@@H](C)C(=O)N[C@@H](CC(C)C)C(=O)N[C@@H](CC(=O)O)C(=O)N[C@@H](CCCCN)C(=O)N[C@H](C(=O)N[C@@H](Cc1c[nH]cn1)C(=O)N[C@@H](CCC(N)=O)C(=O)N[C@@H](CCC(N)=O)C(=O)N[C@@H](CC(=O)O)C(=O)N[C@@H](Cc1ccccc1)C(=O)N[C@H](C(=O)N[C@@H](CC(N)=O)C(=O)N[C@@H](Cc1c[nH]c2ccccc12)C(=O)N[C@@H](CC(C)C)C(=O)N[C@@H](CC(C)C)C(=O)N[C@@H](C)C(=O)N[C@@H](CCC(N)=O)C(=O)N[C@@H](CCCCN)C(=O)NCCOCCOCC(=O)NCCCC[C@H](N)C(=O)N1CCC[C@H]1C#N)C(C)C)[C@@H](C)CC [[Leu^14]GIP(1-30)-Ado-Lys-N-ε-(2-(S)-cyano pyrrolidyl)] (H-YAEGTFISDYSIALDKIHQQDFVNWLLAQK[AEEA][εLys]-{Pyrrolidine(2S-CN)})
IC50 (Recombinant DPP-IV): 109 ± 1 nM
inhibition at 0.01 µM [3]: 100%

^36N-methyl-Tyr-amide-PYY(22-36) (ASLRHYLNLVTRQRY; HELM PEPTIDE1{A.S.L.R.H.Y.L.N.L.V.T.R.Q.R.[meY].[am]}$$$$V2.0; N-terminus assumed; SMILES CC(C)C[C@H](NC(=O)[C@H](CO)NC(=O)[C@H](C)N)C(=O)N[C@@H](CCCNC(=N)N)C(=O)N[C@@H](Cc1c[nH]cn1)C(=O)N[C@@H](Cc1ccc(O)cc1)C(=O)N[C@@H](CC(C)C)C(=O)N[C@@H](CC(N)=O)C(=O)N[C@@H](CC(C)C)C(=O)N[C@H](C(=O)N[C@H](C(=O)N[C@@H](CCCNC(=N)N)C(=O)N[C@@H](CCC(N)=O)C(=O)N[C@@H](CCCNC(=N)N)C(=O)N(C)[C@@H](Cc1ccc(O)cc1)C(N)=O)[C@@H](C)O)C(C)C) [N-terminal truncation of ^36N-methyl-Tyr-amide-PYY(3-36)]
inhibition of formation of PYY(3-35) (plasma carboxypeptidase): measurable but lower activity

^36N-methyl-Tyr-amide-PYY(34-36) (QRY; HELM PEPTIDE1{Q.R.[meY].[am]}$$$$V2.0; N-terminus assumed; SMILES CN(C(=O)[C@H](CCCNC(=N)N)NC(=O)[C@@H](N)CCC(N)=O)[C@@H](Cc1ccc(O)cc1)C(N)=O) [N-terminal truncation of ^36N-methyl-Tyr-amide-PYY(3-36)]
inhibition of formation of PYY(3-35) (plasma carboxypeptidase): did not inhibit
